From publication PMC3128934, “Substrate Pathways and Mechanisms of Inhibition in the Sulfur Oxygenase Reductase of Acidianus Ambivalens” (Frontiers in Microbiology, 2011)

Columns and labels:
[1] = tested on: sulfur oxygenase reductase (SOR); parameters: method as in Kletzin, [1989]; conditions: ref Kletzin, [1989], cited from earlier work; for oxygenase activity remaining: 1 mM inhibitor; for residual activity for the oxidized reaction products: 0.1 mM inhibitor
[2] = target: sulfur oxygenase reductase (SOR) H277A mutant (Acidianus ambivalens, UniProt P29082, H277A); experiment: biochemical; conditions: for Ki: Ki-value (half-maximal inhibitory concentration), H277A mutant
Protocol: (§1) Specific activities of the wild type and mutant proteins were determined by incubation of 2–5 μg of purified enzyme/ml of Tris–HCl buffer pH 7.2 containing 2% sulfur and 0.1% of Tween 20 as described previously (Kletzin, [1989]; Urich et al., [2004], [2005b]). Samples were taken at appropriate time points (usually after 0, 2, 4, 6, 8, and 10 min) and the concentration of the products was determined colorimetrically. Specific activities were calculated from the linear increase of product concentrations (Kletzin, [1989]). At least two activity measurements were performed for each mutant using independently purified protein preparations (see below, Table 2). Iron quantification was performed with pure protein preparations using the 2,4,6-tripyridyl-1,3,5-triazine method (TPTZ; Fischer and Price, [1964]). Protein concentrations were determined by the Coomassie Blue method (Bradford, [1976]) or using the BCA Protein Assay Kit (Novagen/Merck, Darmstadt, Germany) according to the manufacturer's instructions. Samples of purified proteins were separated by SDS-PAGE (Schägger and von Jagow, [1987]) and visualized with colloidal Coomassie Blue staining (Roti-Blue; Roth, Karlsruhe, Germany).
(§2) Zinc inhibition assays of the wild type and mutant proteins were performed by addition of a freshly prepared zinc chloride solution to the reaction buffer in concentrations ranging from 0.01 to 1 mM (Kletzin, [1989]). After addition of the enzyme, the mixture was incubated for 30 min at room temperature before starting the reaction by heating to 85°C and measurement of the specific activities. A zinc/buffer mixture without protein was used as a negative control.

[3] = target: sulfur oxygenase reductase (SOR) wild type (Acidianus ambivalens, UniProt P29082); experiment: biochemical; conditions: Ki-value (half-maximal inhibitory concentration), wild type enzyme, 30 min preincubation at room temperature, reaction at 85°C
Protocol: as §1, §2

[4] = target: sulfur oxygenase reductase (SOR) H166A mutant (Acidianus ambivalens, UniProt P29082, H166A); experiment: biochemical; conditions: for Ki: Ki-value (half-maximal inhibitory concentration), H166A mutant
Protocol: as §1, §2

sulfur oxygenase reductase (SOR) H277A mutant, sequence (P29082 whole entry H277A): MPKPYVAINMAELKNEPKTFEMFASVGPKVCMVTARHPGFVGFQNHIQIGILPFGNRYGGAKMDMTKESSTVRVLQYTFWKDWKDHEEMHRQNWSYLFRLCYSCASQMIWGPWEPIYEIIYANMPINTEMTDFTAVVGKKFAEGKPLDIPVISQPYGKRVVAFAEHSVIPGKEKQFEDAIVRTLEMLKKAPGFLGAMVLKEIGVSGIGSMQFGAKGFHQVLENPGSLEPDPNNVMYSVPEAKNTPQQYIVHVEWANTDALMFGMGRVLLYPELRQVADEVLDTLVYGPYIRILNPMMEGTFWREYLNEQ
sulfur oxygenase reductase (SOR) H166A mutant, sequence (P29082 whole entry H166A): as the sequence (P29082 whole entry H277A) above, with H166A, A277H counted along it
sulfur oxygenase reductase (SOR) wild type, sequence (P29082 whole entry): as the sequence (P29082 whole entry H277A) above, with A277H counted along it

## NC(=O)CI [IAA, iodoacetamide]
[1]
  oxygenase activity remaining: 27%

## [Hg+2] [Hg^2+]
[1]
  residual activity for the oxidized reaction products: 37%

## CCN1C(=O)C=CC1=O [NEM, N-ethylmaleimide]
[1]
  oxygenase activity remaining: 47%

## [Zn+2] [zinc chloride]
[1]
  residual activity for the oxidized reaction products: 74%
[2]; H277A mutant vs wild type
  Increase of Ki-value compared to the wild type: two- to threefold
[2]; oxygenase activity
  Ki: 157 µM
[2]; reductase activity
  Ki: 144 µM
[3]; oxygenase activity
  Ki: 45 µM
[3]; reductase activity
  Ki: 39 µM
[4]; H166A mutant vs wild type
  Increase of Ki-value compared to the wild type: two- to threefold
[4]; oxygenase activity
  Ki: 121 µM
[4]; reductase activity
  Ki: 150 µM
